Results from patent US7138361B2, “Herbicidal heterocycles” (E. I. du Pont de Nemours and Company, priority 2000, dated 2006).

Columns and labels:
Format in all cases: in vivo
rice (Oryza saliva) [1] = assay: Test C flooded paddy test; settings: for Rice plant response rating: scale 0 to 100, 0 no effect, 100 complete control
Description: (§1) At the same time, plants selected from these crop and weed species and also winter barley (Hordeum vulgare), blackgrass (Alopecurus myosuroides), canary grass (Phalaris minor), chickweed (Stellaria media), downy brome (Bromus tectorum), green foxtail (Setaria viridis), Italian ryegrass (Lolium multiflorum), wheat (Triticum aestivum), wild oat (Avena fatua) and windgrass (Apera spica-venti) were treated with postemergence applications of some of the test chemicals formulated in the same manner. Plants ranged in height from 2 to 18 cm (1- to 4-leaf stage) for postemergence treatments. Plant species in the flooded paddy test consisted of rice (Oryza saliva), smallflower flatsedge (Cyperus difformis), duck salad (Heteranthera limosa) and barnyardgrass (Echinochloa crus-galli) grown to the 2-leaf stage for testing. Treated plants and controls were maintained in a greenhouse for 12 to 14 days, after which time all species were compared to controls and visually evaluated. Plant response ratings, summarized in Table C, are based on a scale of 0 to 100 where 0 is no effect and 100 is complete control. A dash (-) response means no test result.

[2] = tested on: smallflower flatsedge (Cyperus difformis); assay: Test C flooded paddy test; settings: for Flatsedge plant response rating: Flooded Paddy, scale 0 to 100, 0 no effect, 100 complete control; for Plant response rating, Flatsedge: scale 0 to 100 (0 no effect, 100 complete control)
Description: as §1

[3] = tested on: duck salad (Heteranthera limosa); assay: Test C flooded paddy test; settings: for Ducksalad plant response rating: scale 0 to 100, 0 no effect, 100 complete control
Description: as §1

[4] = tested on: barnyardgrass (Echinochloa crus-galli); assay: Test C flooded paddy test; settings: for Barnyardgrass plant response rating: scale 0 to 100, 0 no effect, 100 complete control
Description: as §1

[5] = tested on: crabgrass (Digitaria sanguinalis); assay: Test B postemergence; settings: 13 to 15 days
Excerpt: (§2) Seeds selected from barnyardgrass (Echinochloa crus-galli), Surinam grass (Brachiaria decumbens), cocklebur (Xanthium strumarium), corn (Zea mays), crabgrass (Digitaria sanguinalis), giant foxtail (Setaria faberii), lambsquarters (Chenopodium album), morning glory (Ipomoea hederacea), pigweed (Amaranthus retroflexus), rice (Oryza saliva) and velvetleaf (Abutilon theophrasti) were planted and treated preemergence with test chemicals formulated in a non-phytotoxic solvent mixture which included a surfactant.
(§3) At the same time, plants selected from these crop and weed species and also blackgrass (Alopecurus myosuroides), wheat (Triticum aestivum) and wild oat (Avena fatua) were treated with postemergence applications of test chemicals formulated in the same manner. Plants ranged in height from 2 to 18 cm (1- to 4-leaf stage) for postemergence treatments. Plant species in the flooded paddy test consisted of rice (Oryza saliva), smallflower flatsedge (Cyperus difformis), duck salad (Heteranthera limosa) and barnyardgrass (Echinochloa crus-galli) grown to the 2-leaf stage for testing. Treated plants and controls were maintained in a greenhouse for 13 to 15 days, after which time all species were compared to controls and visually evaluated. Plant response ratings, summarized in Table B, are based on a scale of 0 to 100 where 0 is no effect and 100 is complete control. A dash (-) response means no test result.

[6] = tested on: Surinam grass (Brachiaria decumbens); assay: Test B postemergence; settings: 13 to 15 days
Excerpt: as §2, §3

corn (Zea mays) [7] = assay: Test B postemergence; settings: 13 to 15 days
Excerpt: as §2, §3

[8] = tested on: giant foxtail (Setaria faberii); assay: Test B postemergence; settings: 13 to 15 days
Excerpt: as §2, §3

[9] = tested on: blackgrass (Alopecurus myosuroides); assay: Test B postemergence; settings: 13 to 15 days
Excerpt: as §2, §3

[10] = tested on: barnyardgrass (Echinochloa crus-galli); assay: Test B postemergence; settings: 13 to 15 days
Excerpt: as §2, §3

[11] = tested on: morning glory (Ipomoea hederacea); assay: Test B preemergence
Excerpt: as §2, §3

[12] = tested on: crabgrass (Digitaria sanguinalis); assay: Test B preemergence
Excerpt: as §2, §3

rice (Oryza saliva) [13] = assay: Test B preemergence
Excerpt: as §2, §3

[14] = tested on: velvetleaf (Abutilon theophrasti); assay: Test B preemergence
Excerpt: as §2, §3

[15] = tested on: pigweed (Amaranthus retroflexus); assay: Test B preemergence
Excerpt: as §2, §3

[16] = tested on: Surinam grass (Brachiaria decumbens); assay: Test B preemergence
Excerpt: as §2, §3

[17] = tested on: cocklebur (Xanthium strumarium); assay: Test B preemergence
Excerpt: as §2, §3

corn (Zea mays) [18] = assay: Test B preemergence
Excerpt: as §2, §3

[19] = tested on: lambsquarters (Chenopodium album); assay: Test B preemergence
Excerpt: as §2, §3

[20] = tested on: giant foxtail (Setaria faberii); assay: Test B preemergence
Excerpt: as §2, §3

[21] = tested on: barnyardgrass (Echinochloa crus-galli); assay: Test B preemergence
Excerpt: as §2, §3

[22] = tested on: wheat (Triticum aestivum); assay: Test B postemergence; settings: Rate 500 g/ha, scale 0 to 100, 0 is no effect, 100 is complete control, 13 to 15 days
Excerpt: as §2, §3

[23] = tested on: morning glory (Ipomoea hederacea); assay: Test B postemergence; settings: Rate 500 g/ha, scale 0 to 100, 0 is no effect, 100 is complete control, 13 to 15 days
Excerpt: as §2, §3

[24] = tested on: velvetleaf (Abutilon theophrasti); assay: Test B postemergence; settings: Rate 500 g/ha, scale 0 to 100, 0 is no effect, 100 is complete control, 13 to 15 days
Excerpt: as §2, §3

wild oat (Avena fatua) = assay: Test B postemergence; settings: Rate 500 g/ha, scale 0 to 100, 0 is no effect, 100 is complete control, 13 to 15 days
Excerpt: as §2, §3

[25] = tested on: pigweed (Amaranthus retroflexus); assay: Test B postemergence; settings: Rate 500 g/ha, scale 0 to 100, 0 is no effect, 100 is complete control, 13 to 15 days
Excerpt: as §2, §3

[26] = tested on: lambsquarters (Chenopodium album); assay: Test B postemergence; settings: Rate 500 g/ha, scale 0 to 100, 0 is no effect, 100 is complete control, 13 to 15 days
Excerpt: as §2, §3

[27] = flooded paddy test, Rate 62 g/ha, scale 0 to 100 (0 no effect, 100 complete control)
[28] = flooded paddy test, Rate 125 g/ha, scale 0 to 100 (0 no effect, 100 complete control)
[29] = flooded paddy test, Rate 62 g/ha
[30] = flooded paddy test, Rate 125 g/ha
[31] = Rate 125 g/ha, scale 0 (no effect) to 100 (complete control)
[32] = preemergence, Rate 125 g/ha, scale of 0 to 100 where 0 is no effect and 100 is complete control, 13 to 15 days
[33] = Rate 500 g/ha, scale 0 to 100, 0 is no effect, 100 is complete control
[34] = Preemergence, Rate 500 g/ha, scale 0 to 100, 0 no effect, 100 complete control
[35] = Flooded Paddy, Rate 1000 g/ha, scale 0 to 100
[36] = flooded paddy test, Rate 250 g/ha, scale 0 to 100 (0 no effect, 100 complete control)
[37] = flooded paddy test, Rate 62 g/ha, visually evaluated after 12 to 14 days, 0 = no effect, 100 = complete control

CCCCC(C)c1ccn(C2OCN(c3cccc(OC(F)(F)F)c3)C2=O)n1 (stereo not drawn) [Compound 97]
Rice plant response rating (rice (Oryza saliva) [1]; Flooded Paddy, Rate 500 g/ha): 20 | Plant response rating, Rice (rice (Oryza saliva) [1]; [27]): 0 | Plant response rating, Rice (rice (Oryza saliva) [1]; [28]): 20 | Flatsedge plant response rating ([2]; Rate 500 g/ha): 90 | Plant response rating, Flatsedge [2, 29]: 30 | Plant response rating, Flatsedge [2, 30]: 90 | Ducksalad plant response rating ([3]; Flooded Paddy, Rate 500 g/ha): 0 | Plant response rating, Ducksalad [3, 27]: 0 | Plant response rating, Ducksalad [3, 28]: 0 | Barnyardgrass plant response rating ([4]; Flooded Paddy, Rate 500 g/ha): 100 | Plant response rating, Barnyardgrass [4, 27]: 0 | Plant response rating, Barnyardgrass [4, 28]: 40 | Plant response rating, Crabgrass [5, 31]: 0 | Plant response rating, Surinam grass [6, 31]: 0 | Plant response rating, Corn (corn (Zea mays) [7]; [31]): 0 | Plant response rating, Foxtail, Giant [8, 31]: 0 | Plant response rating, Blackgrass [9, 31]: 0 | Plant response rating, Barnyardgrass [10, 31]: 0 | Plant response rating, Morningglory [11, 32]: 0 | Plant response rating, Crabgrass [12, 32]: 20 | Plant response rating, Rice (rice (Oryza saliva) [13]; [32]): 0 | Plant response rating, Velvetleaf [14, 32]: 0 | Plant response rating, Pigweed [15, 32]: 0 | Plant response rating, Surinam grass [16, 32]: 0 | Plant response rating, Cocklebur [17, 32]: 0 | Plant response rating, Corn (corn (Zea mays) [18]; [32]): 0 | Plant response rating, Lambsquarters [19, 32]: 20 | Plant response rating, Foxtail, Giant [20, 32]: 20 | Plant response rating, Barnyardgrass [21, 32]: 30

CCCCC(C)c1ccn(C2OCN(c3cccc(C(F)(F)F)c3)C2=O)n1 (stereo not drawn) [Compound 98]
Rice plant response rating (rice (Oryza saliva) [1]; Flooded Paddy, Rate 250 g/ha): 50 | Rice plant response rating (rice (Oryza saliva) [1]; Flooded Paddy, Rate 500 g/ha): 50 | Plant response rating, Rice (rice (Oryza saliva) [1]; [27]): 0 | Plant response rating, Rice (rice (Oryza saliva) [1]; [28]): 50 | Flatsedge plant response rating ([2]; Rate 250 g/ha): 90 | Flatsedge plant response rating ([2]; Rate 500 g/ha): 90 | Plant response rating, Flatsedge [2, 29]: 60 | Plant response rating, Flatsedge [2, 30]: 80 | Ducksalad plant response rating ([3]; Flooded Paddy, Rate 250 g/ha): 0 | Ducksalad plant response rating ([3]; Flooded Paddy, Rate 500 g/ha): 0 | Plant response rating, Ducksalad [3, 27]: 0 | Plant response rating, Ducksalad [3, 28]: 0 | Barnyardgrass plant response rating ([4]; Flooded Paddy, Rate 250 g/ha): 30 | Barnyardgrass plant response rating ([4]; Flooded Paddy, Rate 500 g/ha): 50 | Plant response rating, Barnyardgrass [4, 27]: 0 | Plant response rating, Barnyardgrass [4, 28]: 0 | Plant response rating, Wheat [22]: 0 | Plant response rating, Morningglory [23]: 0 | Plant response rating, Crabgrass [5, 31]: 0 | Plant response rating, Crabgrass [5, 33]: 20 | Plant response rating, Velvetleaf [24]: 20 | Plant response rating, Wild Oat (wild oat (Avena fatua)): 0 | Plant response rating, Pigweed [25]: 100 | Plant response rating, Surinam grass [6, 31]: 0 | Plant response rating, Surinam grass [6, 33]: 0 | Plant response rating, Corn (corn (Zea mays) [7]; [31]): 0 | Plant response rating, Corn (corn (Zea mays) [7]; [33]): 0 | Plant response rating, Lambsquarters [26]: 80 | Plant response rating, Foxtail, Giant [8, 31]: 0 | Plant response rating, Foxtail, Giant [8, 33]: 20 | Plant response rating, Blackgrass [9, 31]: 0 | Plant response rating, Blackgrass [9, 33]: 0 | Plant response rating, Barnyardgrass [10, 31]: 0 | Plant response rating, Barnyardgrass [10, 33]: 0 | Plant response rating, Morningglory [11, 34]: 0 | Plant response rating, Morningglory [11, 32]: 0 | Plant response rating, Crabgrass [12, 34]: 100 | Plant response rating, Crabgrass [12, 32]: 0 | Plant response rating, Rice (rice (Oryza saliva) [13]; [34]): 30 | Plant response rating, Rice (rice (Oryza saliva) [13]; [32]): 0 | Plant response rating, Velvetleaf [14, 34]: 0 | Plant response rating, Velvetleaf [14, 32]: 0 | Plant response rating, Pigweed [15, 34]: 40 | Plant response rating, Pigweed [15, 32]: 0 | Plant response rating, Surinam grass [16, 34]: 0 | Plant response rating, Surinam grass [16, 32]: 0 | Plant response rating, Cocklebur [17, 34]: 0 | Plant response rating, Cocklebur [17, 32]: 0 | Plant response rating, Corn (corn (Zea mays) [18]; [34]): 0 | Plant response rating, Corn (corn (Zea mays) [18]; [32]): 0 | Plant response rating, Lambsquarters [19, 34]: 100 | Plant response rating, Lambsquarters [19, 32]: 60 | Plant response rating, Foxtail, Giant [20, 34]: 90 | Plant response rating, Foxtail, Giant [20, 32]: 0 | Plant response rating, Barnyardgrass [21, 34]: 90 | Plant response rating, Barnyardgrass [21, 32]: 0

CC(C)(C)C1=NN(C2CCN(c3cccc(C(F)(F)F)c3)C2=O)CC1 (stereo not drawn) [Compound 135]
Plant response rating, Rice (rice (Oryza saliva) [1]; [35]): 0 | Rice plant response rating (rice (Oryza saliva) [1]; Flooded Paddy, Rate 500 g/ha): 0 | Plant response rating, Rice (rice (Oryza saliva) [1]; [28]): 0 | Plant response rating, Rice (rice (Oryza saliva) [1]; [36]): 0 | Plant response rating (scale 0 to 100), Rice (rice (Oryza saliva) [1]; [37]): 0 | Flatsedge plant response rating ([2]; Rate 500 g/ha): 90 | Flatsedge plant response rating ([2]; rate of this column group stands in head line r653, not shown (group before Rate 500 g/ha)): 100 | Plant response rating, Flatsedge [2, 30]: 20 | Plant response rating, Flatsedge ([2]; flooded paddy test, Rate 250 g/ha): 90 | Plant response rating (scale 0 to 100), Flatsedge [2, 37]: 0 | Plant response rating, Ducksalad [3, 35]: 30 | Ducksalad plant response rating ([3]; Flooded Paddy, Rate 500 g/ha): 0 | Plant response rating, Ducksalad [3, 28]: 0 | Plant response rating, Ducksalad [3, 36]: 0 | Plant response rating (scale 0 to 100), Ducksalad [3, 37]: 0 | Plant response rating, Barnyardgrass [4, 35]: 30 | Barnyardgrass plant response rating ([4]; Flooded Paddy, Rate 500 g/ha): 20 | Plant response rating, Barnyardgrass [4, 28]: 0 | Plant response rating, Barnyardgrass [4, 36]: 0 | Plant response rating (scale 0 to 100), Barnyardgrass [4, 37]: 0
